Data on nine compounds can be found in patent US9296741B2, “Bromodomain inhibitors” (priority 2012, dated 2016).

In data set [1] the test system is SKM1 human cancer cell xenograft. The experiment in a line: Xenograft efficacy study, SKM1. In kind it is in vivo, mouse.
The subject of data set [2] is MV4-11 human cancer cell xenograft. Description: Xenograft efficacy study, MV4-11. Conditions: 250 mg/kg/day, IP, BID Q7Dx3, vehicle C. The class given is in vivo, mouse.
Data set [3] deals with rat collagen induced arthritis (rCIA) paw swelling. Conditions: rCIA, dosed at 3 mg/kg (positive control) once daily day 10-17.
The subject of data set [4] is OPM-2 human multiple myeloma xenograft tumors. The experiment in a line: animal or person. Conditions: Mus musculus, OPM-2, po, PO, vehicle A; for change in vivo at 1 mg/kg / inhibition in vivo at 1 mg/kg: 1 mg/kg/day; for change in vivo at 3 mg/kg / inhibition in vivo at 3 mg/kg: 3 mg/kg/day.
A short description of data set [5]: Rat liver microsome stability assay. In kind it is in vitro ADME. Conditions: rat liver microsomes (male Sprague-Dawley), 0.5 μM test compound, 0.25 mg/mL microsomal protein, pH 7.4, 37° C.; read-out: Stability in rat liver microsomes (t1/2 in minutes). On the technique in general: Liver microsomes are a subcellular fraction often used to study metabolism.
Data set [6] deals with human BRD4 second bromodomain (BDII_E352-M457) (Homo sapiens (Human), UniProt O60885). The experiment in a line: TR-FRET bromodomain binding assay, BRD4 second bromodomain.
The nature of data set [7]: Mouse liver microsome stability assay. In kind it is in vitro ADME. Conditions: male, CD1, mouse, microsomes, pH 7.4.
In data set [8] the target is human BRD4 first bromodomain (BDI_K57-E168) (Homo sapiens (Human), UniProt O60885). The experiment in a line: TR-FRET bromodomain binding assay, BRD4 first bromodomain.
Data set [9] is described as follows: Human liver microsome stability assay. Conditions: both sexes, human, microsomes, pH 7.4. The class given is in vitro ADME.
For data set [10], the system named is LPS induced IL-6 production. The experiment in a line: LPS (lipopolysaccharide) induced IL-6 production mouse assay. In kind it is in vivo. Conditions: Mus musculus, read-out: Inhibition of LPS induced IL-6 production in Mice, % inhibition at 3 mg/kg; 3 mg/kg oral, 1 h before LPS; serum IL-6 2 h after LPS.
The subject of data set [11] is breast cancer cell line MX-1. The experiment in a line: MX-1 cell line proliferation assay. The class given is cell-based, human. Conditions: Homo sapiens, MX1, 72 h; MX-1 cells, 3-day proliferation, Cell Titer Glo; read-out: Cellular proliferation: EC50. (In general: Cellular ATP, detected with luciferase, serves as a proxy for viable cell number.)
Data set [12] relates to MX-1 human breast cancer xenograft tumors. The experiment in a line: Xenograft tumor growth inhibition assay, MX-1. The class given is in vivo, mouse. Conditions: MX-1, PO, vehicle F.
Setting [13] is: 250 mg/kg/day, IP, BID Q7Dx3, vehicle C.
The mark [14] stands for this setting: read-out: % TGD (tumor growth delay), OPM-2, QDx21.
The mark [15] stands for this setting: read-out: % TGI (tumor growth inhibition), OPM-2, QDx21.
The mark [16] stands for this setting: 3 mg/kg/day, QD (5 on, 3 off, 5 on).
The mark [17] stands for this setting: 6 mg/kg/day, IV, Q7Dx3, vehicle C.

Where two headings read alike, the source gives them in different places. Marks after values point to notes of the source that are not given here. Some results are limits rather than exact numbers.

Take `Nc1ccn([C@@H]2O[C@H](CO)[C@@H](O)[C@@H]2O)c(=O)n1` [cytarabine]: in [1] (setting [13]), the “% TGD (tumor growth delay)” value worked out at 30%, the “% TGI (tumor growth inhibition)” value came to 20% and the “% removed from study” value worked out at 0%. Further, in data set [2], the “% TGD (tumor growth delay)” value is 37*** %, the “% TGI (tumor growth inhibition)” value is 47*** % and the “% removed from study” value is reported as 0%.

Take `C[C@]12C=CC(=O)C=C1CC[C@@H]1[C@@H]2[C@@H](O)C[C@@]2(C)[C@H]1CC[C@]2(O)C(=O)CO` [Prednisolone, prednisolone, reference compound]: in data set [3], the “AUC of Paw Swelling, MEAN” value is recorded as 0.67** ml-day.

On to `Cn1cc(-c2cc(S(N)(=O)=O)ccc2Oc2ccc(F)cc2F)c2cc[nH]c2c1=O` [Example 146, 4-(2,4-difluorophenoxy)-3-(6-methyl-7-oxo-6,7-dihydro-1H-pyrrolo[2,3-c]pyridin-4-yl)benzenesulfonamide], for which, in [4] (setting [14]), the change in vivo at 1 mg/kg was 35%. The change in vivo at 3 mg/kg in data set [4] (setting [14]) amounted to 78%. Further, in [4] (setting [15]), the inhibition in vivo at 1 mg/kg was 39%. The inhibition in vivo at 3 mg/kg in [4] (setting [15]) was determined as 76%; in [10], 80%. Also, the results for the half-life at 0.5 μM in data set [5], in [7] and in data set [9] were 52 min, 55 min and above 120 min, respectively. Moreover, the values for the Ki in data set [6] and in data set [8] were 1.9 nM and 7.5 nM, respectively. Also, in [11], the EC50 is 60.9 nM.

As for `Cn1cc(-c2cc(CS(C)(=O)=O)cnc2Oc2ccc(F)cc2F)c2cc[nH]c2c1=O` [Example 311, 4-{2-(2,4-difluorophenoxy)-5-[(methylsulfonyl)methyl]pyridin-3-yl}-6-methyl-1,6-dihydro-7H-pyrrolo[2,3-c]pyridin-7-one], in data set [4] (read-out: % TGD (tumor growth delay), OPM-2, 1.25 mg/kg/day, QDx21), the change in vivo at 1.25 mg/kg is 90%. The inhibition in vivo at 1.25 mg/kg in [4] (read-out: % TGI (tumor growth inhibition), OPM-2, 1.25 mg/kg/day, QDx21) was 60%. The half-life at 0.5 μM in data set [5] was 83 min; in data set [7] it was above 120 min; in data set [9] it was above 120 min. For the same compound, the Ki (usually a dissociation constant, usually derived from enzyme kinetics or from competition with a known ligand) in [6] is 4.5 nM; in data set [8] it was 14.8 nM. Also, the inhibition in vivo at 3 mg/kg in [10] was determined as 74%. The EC50 in data set [11] amounted to 22.4 nM.

For the compound `Cn1cc(-c2cc(S(C)(=O)=O)ccc2OCC2CC2)c2cc[nH]c2c1=O` [Example 158, 4-[2-(cyclopropylmethoxy)-5-(methylsulfonyl)phenyl]-6-methyl-1,6-dihydro-7H-pyrrolo[2,3-c]pyridin-7-one], the change in vivo at 6 mg/kg in [4] (read-out: % TGD (tumor growth delay), OPM-2, 6 mg/kg/day, QDx21) is 34%. Besides, the change in vivo at 20 mg/kg in data set [4] (read-out: % TGD (tumor growth delay), OPM-2, 20 mg/kg/day, QDx21) was determined as 72%. In addition, in [4] (read-out: % TGI (tumor growth inhibition), OPM-2, 6 mg/kg/day, QDx21), the inhibition in vivo at 6 mg/kg was found to be 53%. Moreover, the inhibition in vivo at 20 mg/kg in data set [4] (read-out: % TGI (tumor growth inhibition), OPM-2, 20 mg/kg/day, QDx21) was 78%. For the same compound, the half-life at 0.5 μM in data set [5], in [7] and in data set [9] was above 120 min throughout. Besides, the Ki is 9.7 nM in data set [6] and 4.1 nM in data set [8]. The EC50 in data set [11] stood at 24.3 nM.

On to `Cn1cc(-c2cc(NS(C)(=O)=O)ccc2Oc2ccc(F)cc2F)c2cc[nH]c2c1=O` [Example 27, N-[4-(2,4-difluorophenoxy)-3-(6-methyl-7-oxo-6,7-dihydro-1H-pyrrolo[2,3-c]pyridin-4-yl)phenyl]methanesulfonamide], for which the change in vivo at 1 mg/kg in data set [4] (read-out: % TGD (tumor growth delay), OPM-2, QDx14) is -2%. For the same compound, the change in vivo at 3 mg/kg in data set [4] (read-out: % TGD (tumor growth delay), OPM-2, QD (5 on, 3 off, 5 on)) was 7%. In addition, in [4] (read-out: % TGI (tumor growth inhibition), OPM-2, QDx14), the inhibition in vivo at 1 mg/kg worked out at 59%. Also, the inhibition in vivo at 3 mg/kg in data set [4] (read-out: % TGI (tumor growth inhibition), OPM-2, QD (5 on, 3 off, 5 on)) was found to be 67%; in data set [10], 89%. For the same compound, the half-life at 0.5 μM in [5] was above 120 min; in data set [7], 59 min; in [9], 32 min. Besides, the Ki in data set [6] was found to be 2.2 nM; in [8] it was 2.5 nM. The “% TGD (tumor growth delay)” value in [12] (0.3 mg/kg/day, QD) is listed as 35%; in data set [12] (1 mg/kg/day, QD), 13%. The “% TGI (tumor growth inhibition)” value in data set [12] (0.3 mg/kg/day, QD) is recorded as 38** %; in data set [12] (1 mg/kg/day, QD), 57*** %; in [12] (setting [16]) it was 69*** %. Further, the “% removed from study” value came out at 0% in data set [12] (0.3 mg/kg/day, QD); 0% in [12] (1 mg/kg/day, QD); 0% in [12] (setting [16]). The EC50 in [11] is 31.7 nM.

Consider `CCS(=O)(=O)c1ccc(OC2CCC(F)(F)CC2)c(-c2cn(C)c(=O)c3[nH]ccc23)c1` [Example 169, 4-{2-[(4,4-difluorocyclohexyl)oxy]-5-(ethylsulfonyl)phenyl}-6-methyl-1,6-dihydro-7H-pyrrolo[2,3-c]pyridin-7-one], for which the change in vivo at 3 mg/kg in data set [4] (setting [14]) worked out at 77%. Besides, the values for the inhibition in vivo at 3 mg/kg in [4] (setting [15]) and in data set [10] were 69% and 67%, respectively. The half-life at 0.5 μM in data set [5] is 34 min; in [7] it was 38 min; in [9] it was 86 min. The Ki in data set [6] was found to be 0.86 nM; in [8], 0.88 nM. Also, the EC50 in [11] was determined as 5.3 nM.

In the case of `CCS(=O)(=O)c1ccc(NCC2CC2)c(-c2cn(C)c(=O)c3[nH]ccc23)c1` [Example 200, 4-{2-[(cyclopropylmethyl)amino]-5-(ethylsulfonyl)phenyl}-6-methyl-1,6-dihydro-7H-pyrrolo[2,3-c]pyridin-7-one], in [4] (setting [14]), the change in vivo at 1 mg/kg amounted to 44%. For the same compound, in [4] (setting [14]), the change in vivo at 3 mg/kg was 82%. For the same compound, the inhibition in vivo at 1 mg/kg in data set [4] (setting [15]) came to 50%. In addition, the inhibition in vivo at 3 mg/kg in data set [4] (setting [15]) is 80%; in data set [10], 75%. Besides, the half-life at 0.5 μM in data set [5] is 31 min; in data set [7] it was above 120 min; in data set [9], above 120 min. The Ki amounted to 1.1 nM in data set [6] and 0.86 nM in data set [8]. Also, the EC50 in data set [11] is 11.3 nM.

Take `Nc1ncn([C@@H]2O[C@H](CO)[C@@H](O)[C@H]2O)c(=O)n1` [azacitidine]: in data set [1] (setting [17]), the “% TGD (tumor growth delay)” value is 98* %, the “% TGI (tumor growth inhibition)” value is 54** % and the “% removed from study” value is 0%.
